{"source": "paper PMC9511441", "about": "“Semisynthetic teicoplanin derivatives with dual antimicrobial activity against SARS-CoV-2 and multiresistant bacteria” (Scientific Reports, 2022)", "key": {"HCoV-229E": {"test_system": "HCoV-229E", "assay": "CPE reduction assay, HCoV-229E in HEL cells", "assay_type": "cell-based"}, "[1]": {"test_system": "Klebsiella pneumoniae ST258 clone K 160/09", "assay": "MIC against Gram-negative strain", "details": "Klebsiella pneumoniae"}, "S. epidermidis": {"test_system": "S. epidermidis", "assay": "microbe, parasite or virus in culture", "assay_type": "cell-based", "details": "Staphylococcus epidermidis"}, "E. faecium": {"test_system": "E. faecium", "assay": "microbe, parasite or virus in culture", "assay_type": "cell-based", "details": "for MIC: Enterococcus faecium"}, "HEL cells": {"test_system": "HEL cells", "assay": "Cytotoxicity in mock-infected HEL cells (MTS)", "assay_type": "cell-based, human", "details": "mock-infected HEL cells, MTS, mean of 2–3 tests"}, "[2]": {"test_system": "Escherichia coli ATCC 25218", "assay": "MIC against Gram-negative strain", "details": "ATCC25218"}, "VeroE6 cells": {"test_system": "VeroE6 cells", "assay": "Cytotoxicity in mock-infected VeroE6 cells (XTT)", "assay_type": "cell-based, African green monkey", "details": "mock-infected Vero E6 cells, three days, XTT"}, "[3]": {"target": "T1, human recombinant cathepsin L (Homo sapiens, UniProt P07711)", "T1 construct": "made in house; host or cells: Escherichia coli", "T1 sequence (P07711 114-333)": "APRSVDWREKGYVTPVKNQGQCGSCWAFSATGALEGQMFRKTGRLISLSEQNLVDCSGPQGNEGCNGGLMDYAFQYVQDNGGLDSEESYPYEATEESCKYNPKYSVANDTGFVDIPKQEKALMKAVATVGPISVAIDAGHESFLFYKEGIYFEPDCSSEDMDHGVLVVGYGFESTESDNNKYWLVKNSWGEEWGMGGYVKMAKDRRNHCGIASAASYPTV", "assay": "biochemical", "assay_type": "biochemical"}, "[4]": {"test_system": "Pseudomonas aeruginosa ATCC 27853", "assay": "MIC against Gram-negative strain", "details": "ATCC27853"}, "Calu-3 cells": {"test_system": "Calu-3 cells", "assay": "Cytotoxicity in mock-infected Calu-3 cells (XTT)", "details": "read-out: CC50, Calu-3 cells, three days"}, "[5]": {"test_system": "Acinetobacter baumannii ATCC BAA1605", "assay": "MIC against Gram-negative strain", "details": "Acinetobacter baumannii, ATCCBAA1605"}, "S. aureus ATCC29213 [6]": {"test_system": "S. aureus ATCC29213", "assay": "Fluorescent competition assay, release of fluorescent teicoplanin", "assay_type": "binding", "details": "cells saturated with FL-TEI, Fig. 7 right panel"}, "SARS-CoV-2 pseudovirus": {"test_system": "SARS-CoV-2 pseudovirus", "assay": "microbe, parasite or virus in culture", "assay_type": "cell-based", "details": "cathepsin-dependent endosomal pathway"}, "E. faecalis": {"test_system": "E. faecalis", "assay": "MIC, broth microdilution", "assay_type": "cell-based", "details": "Enterococcus faecalis"}, "S. haemolyticus": {"test_system": "S. haemolyticus", "assay": "MIC, broth microdilution", "assay_type": "cell-based", "details": "Staphylococcus haemolyticus"}, "S. aureus": {"test_system": "S. aureus", "assay": "MIC, broth microdilution", "assay_type": "cell-based", "details": "Staphylococcus aureus"}, "S.pyogenes": {"test_system": "S.pyogenes", "assay": "MIC, broth microdilution", "assay_type": "cell-based", "details": "Streptococcus pyogenes"}, "S. aureus ATCC29213 [7]": {"test_system": "S. aureus ATCC29213", "assay": "Fluorescent competition assay, release of fluorescent vancomycin", "details": "cells saturated with FL-VAN, Fig. 7 left panel"}}, "note": "Read-outs that look alike come from different tables or passages of the source.", "data": [{"smiles": "CC(=O)N[C@H]1[C@H](O[C@@H]2c3ccc(c(Cl)c3)Oc3cc4cc(c3O)Oc3ccc(cc3Cl)C[C@H]3NC(=O)[C@H](NC(=N)N)c5ccc(O)c(c5)Oc5cc(O)cc(c5)[C@H](NC3=O)C(=O)N[C@H]4C(=O)N[C@H]3C(=O)N[C@@H]2C(=O)N[C@H](C(=O)O)c2cc(O)cc(O)c2-c2cc3ccc2O)O[C@H](CO)[C@@H](O)[C@@H]1O", "note": "[Compound 6]", "values": [{"measurement": "Activity against HCoV-229E CPE (in words)", "setting": "HCoV-229E", "result": "only modest activity"}, {"measurement": "MIC", "setting": "[1]", "result": 128, "unit": "µg/mL"}, {"measurement": "MIC", "setting": "S. epidermidis; read-out: Average MIC value, S. epidermidis mecA, 6 strains", "result": 0.1, "unit": "µg/mL"}, {"measurement": "MIC", "setting": "S. epidermidis; read-out: MIC value, S.epidermidis ORI_R1, mecA", "result": 0.0625, "unit": "µg/mL"}, {"measurement": "MIC", "setting": "S. epidermidis; read-out: MIC value, S.epidermidis ORI_R2, mecA", "result": 0.125, "unit": "µg/mL"}, {"measurement": "MIC", "setting": "S. epidermidis; read-out: MIC value, S.epidermidis ORI_R3, mecA", "result": 0.0625, "unit": "µg/mL"}, {"measurement": "MIC", "setting": "S. epidermidis; read-out: MIC value, S.epidermidis ORI_R4, mecA", "result": 0.0625, "unit": "µg/mL"}, {"measurement": "MIC", "setting": "S. epidermidis; read-out: MIC value, S.epidermidis TEI_R1, mecA", "result": 0.0625, "unit": "µg/mL"}, {"measurement": "MIC", "setting": "S. epidermidis; read-out: MIC value, S.epidermidis TEI_R2, mecA", "result": 0.25, "unit": "µg/mL"}, {"measurement": "MIC", "setting": "E. faecium; read-out: Average MIC value, E. faecium VAN^R,TEI^R/VanA, 8 strains", "result": 0.156, "unit": "µg/mL"}, {"measurement": "MIC", "setting": "E. faecium; read-out: Average MIC value, E. faecium VAN^S, TEI^S, 1 strain", "result": 0.0625, "unit": "µg/mL"}, {"measurement": "MIC", "setting": "E. faecium; read-out: MIC value, E.faecium E335, VAN,TEI,LNZ/VanA", "result": 0.125, "unit": "µg/mL"}, {"measurement": "MIC", "setting": "E. faecium; read-out: MIC value, E.faecium E355, VAN,TEI,LNZ/VanA", "result": 0.125, "unit": "µg/mL"}, {"measurement": "MIC", "setting": "E. faecium; read-out: MIC value, E.faecium E832, VAN,TEI,LNZ/VanA", "result": 0.125, "unit": "µg/mL"}, {"measurement": "MIC", "setting": "E. faecium; read-out: MIC value, E.faecium E854, VAN,TEI,LNZ/VanA", "result": 0.125, "unit": "µg/mL"}, {"measurement": "MIC", "setting": "E. faecium; read-out: MIC value, E.faecium E859, VAN,TEI,LNZ/VanA", "result": 0.125, "unit": "µg/mL"}, {"measurement": "MIC", "setting": "E. faecium; read-out: MIC value, E.faecium E1114, VAN,TEI,LNZ/VanA", "result": 0.5, "unit": "µg/mL"}, {"measurement": "MIC", "setting": "E. faecium; read-out: MIC value, E.faecium E1131, VAN,TEI,LNZ/VanA", "result": 0.0625, "unit": "µg/mL"}, {"measurement": "MIC", "setting": "E. faecium; read-out: MIC value, E.faecium E1132, VAN,TEI,LNZ/VanA", "result": 0.0625, "unit": "µg/mL"}, {"measurement": "MIC", "setting": "E. faecium; read-out: MIC value, E.faecium TX0016", "result": 0.0625, "unit": "µg/mL"}, {"measurement": "Activity against E. faecium strains expressing the VanA resistance phenotype (in words)", "setting": "E. faecium; VanA phenotype", "result": "strong activity"}, {"measurement": "CC50", "setting": "HEL cells", "result": "> 100", "unit": "µM"}, {"measurement": "MIC", "setting": "[2]", "result": 128, "unit": "µg/mL"}, {"measurement": "CC50", "setting": "VeroE6 cells", "result": "> 100", "unit": "µM"}, {"measurement": "Cathepsin L inhibition (in words)", "setting": "[3]", "result": "did not prove to be an inhibitor"}, {"measurement": "IC50", "setting": "[3]; read-out: Cathepsin L IC50, pH 5.5, Z-Phe-Arg-AMC substrate", "result": "> 500", "unit": "µM"}, {"measurement": "MIC", "setting": "[4]", "result": 256, "unit": "µg/mL"}, {"measurement": "CC50", "setting": "Calu-3 cells", "result": "> 100", "unit": "µM"}, {"measurement": "MIC", "setting": "[5]", "result": 128, "unit": "µg/mL"}, {"measurement": "Outcompeting fluorescent teicoplanin from S. aureus (in words)", "setting": "S. aureus ATCC29213 [6]", "result": "the most active competitor"}, {"measurement": "Inhibition of pseudovirus entry in Vero cells (in words)", "setting": "SARS-CoV-2 pseudovirus", "result": "moderately active"}, {"measurement": "MIC", "setting": "E. faecalis; read-out: Average MIC value, E. faecalis VAN^R,TEI^R/VanA, 1 strain", "result": 0.125, "unit": "µg/mL"}, {"measurement": "MIC", "setting": "E. faecalis; read-out: Average MIC value, E. faecalis VAN^S, TEI^S, 2 strains", "result": 0.125, "unit": "µg/mL"}, {"measurement": "MIC", "setting": "E. faecalis; read-out: MIC value, E.faecalis JH2-2", "result": 0.125, "unit": "µg/mL"}, {"measurement": "MIC", "setting": "E. faecalis; read-out: MIC value, E.faecalis OG1RF", "result": 0.125, "unit": "µg/mL"}, {"measurement": "MIC", "setting": "E. faecalis; read-out: MIC value, E.faecalis V583, VAN,TEI/VanA", "result": 0.125, "unit": "µg/mL"}, {"measurement": "MIC", "setting": "S. haemolyticus; S. haemolyticus mecA, 6 strains, read-out: Average MIC value", "result": 0.27, "unit": "µg/mL"}, {"measurement": "MIC", "setting": "S. haemolyticus; S.haemolyticus DALB_R1, mecA, read-out: MIC value", "result": 0.5, "unit": "µg/mL"}, {"measurement": "MIC", "setting": "S. haemolyticus; S.haemolyticus DALB_R2, mecA, read-out: MIC value", "result": 0.25, "unit": "µg/mL"}, {"measurement": "MIC", "setting": "S. haemolyticus; S.haemolyticus DALB_R3, mecA, read-out: MIC value", "result": 0.25, "unit": "µg/mL"}, {"measurement": "MIC", "setting": "S. haemolyticus; S.haemolyticus DALB_R4, mecA, read-out: MIC value", "result": 0.125, "unit": "µg/mL"}, {"measurement": "MIC", "setting": "S. haemolyticus; S.haemolyticus DALB_R5, mecA, read-out: MIC value", "result": 0.25, "unit": "µg/mL"}, {"measurement": "MIC", "setting": "S. haemolyticus; S.haemolyticus ORI_R1, mecA, read-out: MIC value", "result": 0.25, "unit": "µg/mL"}, {"measurement": "MIC", "setting": "S. aureus; ATCC 29213 / MSSA, read-out: MIC value, S. aureus ATCC29213, MSSA", "result": 0.25, "unit": "µg/mL"}, {"measurement": "MIC", "setting": "S. aureus; MRSA / USA300, read-out: MIC value, S. aureus USA300, CA-MRSA", "result": 0.125, "unit": "µg/mL"}, {"measurement": "MIC", "setting": "S. aureus; MRSA, read-out: Average MIC value, S. aureus CA-MRSA, 1 strain", "result": 0.125, "unit": "µg/mL"}, {"measurement": "MIC", "setting": "S. aureus; MRSA, read-out: Average MIC value, S. aureus MRSA, 7 strains", "result": 0.125, "unit": "µg/mL"}, {"measurement": "MIC", "setting": "S. aureus; MRSA, read-out: MIC value, S. aureus 73OL, MRSA", "result": 0.125, "unit": "µg/mL"}, {"measurement": "MIC", "setting": "S. aureus; MRSA, read-out: MIC value, S. aureus 214OL, MRSA", "result": 0.125, "unit": "µg/mL"}, {"measurement": "MIC", "setting": "S. aureus; MRSA, read-out: MIC value, S. aureus 1041OL, MRSA", "result": 0.125, "unit": "µg/mL"}, {"measurement": "MIC", "setting": "S. aureus; MRSA, read-out: MIC value, S. aureus A6918, MRSA", "result": 0.125, "unit": "µg/mL"}, {"measurement": "MIC", "setting": "S. aureus; MRSA, read-out: MIC value, S. aureus A6919, MRSA", "result": 0.125, "unit": "µg/mL"}, {"measurement": "MIC", "setting": "S. aureus; MRSA, read-out: MIC value, S. aureus Mu50, MRSA", "result": 0.125, "unit": "µg/mL"}, {"measurement": "MIC", "setting": "S. aureus; MRSA, read-out: MIC value, S. aureus N315, MRSA", "result": 0.125, "unit": "µg/mL"}, {"measurement": "MIC", "setting": "S. aureus; MSSA / NEWMAN, read-out: MIC value, S. aureus Newman, MSSA", "result": 0.25, "unit": "µg/mL"}, {"measurement": "MIC", "setting": "S. aureus; MSSA, read-out: Average MIC value, S. aureus MSSA, 4 strains", "result": 0.188, "unit": "µg/mL"}, {"measurement": "MIC", "setting": "S. aureus; MSSA, read-out: MIC value, S. aureus MSSA476, MSSA", "result": 0.125, "unit": "µg/mL"}, {"measurement": "MIC", "setting": "S. aureus; MSSA, read-out: MIC value, S. aureus SA564, MSSA", "result": 0.125, "unit": "µg/mL"}, {"measurement": "MIC", "setting": "S.pyogenes; read-out: MIC value, S.pyogenes H232", "result": 0.125, "unit": "µg/mL"}, {"measurement": "MIC", "setting": "S.pyogenes; read-out: MIC value, S.pyogenes H550", "result": 0.125, "unit": "µg/mL"}, {"measurement": "MIC", "setting": "S.pyogenes; read-out: MIC value, S.pyogenes H578", "result": 0.125, "unit": "µg/mL"}, {"measurement": "Outcompeting fluorescent vancomycin from S. aureus (in words)", "setting": "S. aureus ATCC29213 [7]", "result": "highly effective at outcompeting fluorescent vancomycin"}]}]}
